Source: patent US20020081665A1, “Bryostatins, bryopyrans and polyketides: compositions and methods” (priority 1999, published 2002)

What was measured:
lymphocytes [1] = conditions: in vitro; cited from earlier work
lymphocytes [2] = conditions: cancer patients, intravenous administration; cited from earlier work
[3] = test system: human breast cancer cells; conditions: cited from earlier work
melanoma = conditions: cited from earlier work; for side effects: compared with bryostatin 1, melanoma treatment; for effectiveness in treating melanoma: compared with bryostatin 1
E. sertula = test: gentamicin treatment of B. neritina larvae, E. sertula and KSa levels by specific PCR; parameters: species or system Candidatus Endobugula sertula; conditions: about 100 micrograms per milliliter for about seven days post-settlement, grown out 3 months, vs untreated controls
Procedure: (§1) B. neritina larvae were treated with gentamicin at about 100 micrograms per milliliter for about seven days post-settlement, grown out for 3 months to re-establish their commensal bacterial flora, and then assayed for E. sertula levels and KSa levels by specific PCR and bryostatin activity by phorbol dibutyrate displacement (PdBu) assay (FIG. 7). The standard method for detecting bryostatins is the PdBu displacement assay (DeVries et al., 1988). Rat brain liposomes are incubated with tritiated PdBu, which binds to PKC in the liposomes. The liposomes are collected by filtration and counted in a scintillation counter. If an extract is added that contains a compound that can compete with phorbol for binding, less tritiated PdBu is bound. The assay has a subnanomolar detection limit for pure bryostatin 1 and is suitable for milligram quantities of sample. In B. neritina, the only compounds with PdBu activity are bryostatins, and PdBu activity is a good measure of total bryostatin activity.

B. neritina = test: gentamicin treatment of B. neritina larvae, bryostatin activity and growth of colonies; parameters: species or system Bugula neritina; conditions: about 100 micrograms per milliliter for about seven days post-settlement
Procedure: as §1

## CCC/C=C/C=C/C(=O)O[C@H]1/C(=C/C(=O)OC)C[C@H]2C[C@H]([C@@H](C)O)OC(=O)C[C@H](O)C[C@@H]3C[C@H](OC(C)=O)C(C)(C)[C@](O)(C[C@@H]4C/C(=C/C(=O)OC)C[C@H](/C=C/C(C)(C)[C@]1(O)O2)O4)O3 [bryostatin 1]
Lymphocytes [1]
  effect on lymphocytes in combination with IL-2: enhances proliferation and IL-2 receptor expression on lymphocytes
Lymphocytes [2]
  effect on IL-2-induced lymphocyte activity in patients: increased the potential of IL-2 to induce proliferation of LAK activity in lymphocytes
[3]
  sensitization to the cytotoxic effects of gemcitabine: sensitized human breast cancer cells to the cytotoxic effects of gemcitabine

## COC(=O)/C=C1/C[C@H]2C[C@]3(O)O[C@H](C[C@@H](O)CC(=O)O[C@@H]([C@@H](C)O)C[C@H]4C/C(=C\C(=O)OC)[C@H](OC(C)=O)[C@@](O)(O4)C(C)(C)/C=C/[C@@H](C1)O2)C[C@H](OC(=O)CC(C)C)C3(C)C [bryostatin 5]
melanoma
  side effects: milder side effects
  effectiveness in treating melanoma: as effective as bryostatin 1

## bryostatin 8
melanoma
  side effects: milder side effects
  effectiveness in treating melanoma: as effective as bryostatin 1

## gentamicin
E. sertula; specific PCR
  KSa levels: reduced dramatically
E. sertula; FIG. 7
  E. sertula population: reduced dramatically
B. neritina
  bryozoan growth rates, treated versus untreated colonies: the same
B. neritina; grown out 3 months, vs untreated controls
  bryostatin activity of treated colonies (PdBu assay): reduced
